Here are results for five molecules from patent publication US20220306695A1, “COMPSTATIN ANALOGUES AND THEIR MEDICAL USES” (priority 2019, published 2022).

Series [1] concerns classical complement pathway. The series is described as follows: In vitro haemolysis assay (inhibition of classical complement pathway). The series is classed as cell-based, human. As to conditions: for IC50: Table 3, human serum, sensitized sheep red blood cells, read-out: IC50[nM], in vitro analysis of inhibition of hemolysis; for pIC50: Table 4, valine 3 versus isoleucine 3 pairs, read-out: CP hemolysis IC50. The gist of the method:
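Serially diluted compound (9 points) was preincubated 15 min at room temperature with diluted human serum, titrated per batch to give 70-90% maximal haemolysis, in Tris/casein buffer pH 7.4 with Mg2+/Ca2+. Antibody-sensitized sheep erythrocytes were then added for 30 min at 37° C, and the reaction was stopped with EDTA. Haemolysis was read at A405, with IC50 from 4PL fit.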

Another series is described as follows: in vivo. The arrangement: species or system Cynomolgus monkeys (Macaca fascicularis). As to conditions: male, cynomolgus monkey, sc, 1840 nmol/kg, t½. Here is the method: Healthy male Cynomolgus monkeys (Macaca fascicularis) received single subcutaneous administrations of each test substance. Compounds were formulated in 20 mM phosphate adjusted with NaOH to pH 7.5 and mannitol for isotonicity and dosed at 1840 nmol/kg. Blood was collected from a femoral vein from each animal at the following times: Pre-dose, 1, 2, 4, 8, 24, 48, 72, 96 and 120 h (10 sampling times). Blood was collected into serum separation tubes and allowed to clot at room temperature. The tubes were centrifuged and resulting serum was aliquoted and snap-frozen over dry-ice and stored at nominally −80° C. until analysis. All NHP studies were performed in accordance with animal welfare laws and regulations, including approval of the study by a local ethical review process.
In order to assess pharmacokinetic half-life (t %/), serum samples isolated from non-human primates at specific time points after dosing were analysed for total drug compound after sample preparation by solid phase extraction (SPE) and liquid chromatography mass spectrometry (LC-MS/MS) using analogue internal standard. Single measurement of serum concentrations were used for calculation of the pharmacokinetic parameters using the non-compartmental approach in Phoenix WinNonlin 6.3. Plasma terminal elimination half-life (ty) was determined as In(2)/λz where λz is the magnitude of the slope of the log linear regression of the log concentration versus time profile during the terminal phase.

The nature of series [2]: Solubility test at 10 mg/mL (visual inspection and light scattering). The series is classed as physicochemical. As to conditions: for Solubility, Condition 1 Acetate pH 4: 10 mg/mL compound in 100 mM acetate pH 4; for Solubility, Condition 2 Acetate pH 5: 10 mg/mL compound in 100 mM acetate pH 5; for Solubility, Condition 3 Phosphate pH 6: 10 mg/mL compound in 100 mM phosphate pH 6; for Solubility, Condition 4 Phosphate pH 7: 10 mg/mL compound in 100 mM phosphate pH 7; for Solubility, Condition 5 Phosphate pH 7.5: 10 mg/mL compound in 100 mM phosphate pH 7.5.

The target in another series is T1, Human C3 (Homo sapiens, UniProt P01024).
T1 construct: purchased Complement tech A1 13c (so in the source)
In words: Affinity measurement by surface plasmon resonance (SPR) with immobilized C3. Format: binding. As to conditions: Table 7; immobilized C3, 25° C., pH 7.4. As to the method:
Surface plasmon resonance (SPR) was used to characterize peptides with respect to their binding affinity (Kd) for C3. Human C3 (Complement tech cat #A1 13c) was immobilised on individual flow cells of CM5 sensor chips (GE Healthcare) using standard amine coupling to a density of approximately 3000 resonance units (RU) in a buffer consisting of 10 mM phosphate pH 7.4, 150 mM NaCl, 0.05% Tween20. For interaction experiments a multi-cycle experiment approach was used and performed using either a Biacore™ T200 or Biacore™ X100 instrument (GE Healthcare) at 25° C. Peptides were injected in increasing concentration series (5-8 different concentrations) for 60-120 s at a flow rate of 30 μL/min in a buffer consisting of 10 mM Tris buffer at pH 7.4, with 150 mM NaCl and 0.05% Tween20. This was followed by a dissociation period for up to 10 min. […] Sensorgrams were double-referenced (reference surface, blanks) prior to analysis of the kinetic profiles by globally fitting data to a 1:1 Langmuir binding model to obtain association and dissociation rates for calculation of the equilibrium dissociation constant Kd. Each peptide was tested at in at least 2 independent experiments.
For orientation: In SPR one partner is held on a chip, and binding of the other changes the refractive index at the surface.

One may read the IC50 as the concentration needed to halve the response being measured. For orientation: half-life means the time needed for the level to fall by half in the phase considered. A lower half-life goes with rapid decline. Usually pIC50 stands for the negative decadic logarithm of the IC50, by convention in mol/L. For orientation: pKd means the negative decadic logarithm of the Kd, by convention in mol/L.

pIC50, pKd: −log10 of the molar value. Like-named read-outs stand apart in the source and are kept apart here. Starred links: 1 amine or outer side, 2 acyl side, 3 side chain; linkers in the order of their positions; H or OH if unused. Positions of bridges follow the written chain, without caps; N, C: chain ends. Non-standard residues stand in square brackets, D forms with d. Residues, ends and D or L forms follow the SMILES beside them. Groups on a side chain read outwards from the residue. *: point of attachment. Trp(1-Me) = Cn1cc(C[C@H](N)C(=O)O)c2ccccc21; C18 diacid = O=C(O)CCCCCCCCCCCCCCCCC(=O)*; γGlu = O=C(O)[C@H](CCC(=O)[*:2])N[*:1]; AEEA = NCCOCCOCC(=O)O; Sar = CNCC(=O)O

In the case of `CC[C@H](C)[C@@H]1NC(=O)[C@@H](NC(=O)[C@H](Cc2ccccc2)NC(=O)[C@H](CCC(=O)O)NC(=O)[C@H](CO)NC(C)=O)CSSC[C@@H](C(=O)N(C)CC(=O)N[C@@H](CCC(=O)O)C(=O)NCC(=O)N[C@@H](CCC(=O)O)C(=O)N[C@@H](CO)C(=O)N[C@@H](CCC(=O)O)C(=O)N[C@@H](CO)C(=O)N[C@@H](CCCCNC(=O)CC[C@H](NC(=O)CCCCCCCCCCCCCCCCC(=O)O)C(=O)O)C(N)=O)NC(=O)[C@H](CCCNC(=N)N)NC(=O)[C@H](Cc2c[nH]cn2)NC(=O)[C@H](CCC(=O)O)NC(=O)CNC(=O)[C@H](Cc2c[nH]c3ccccc23)NC(=O)[C@H](CC(=O)O)NC(=O)[C@H](CCC(N)=O)NC(=O)[C@H](Cc2cn(C)c3ccccc23)NC1=O` [Compound 141] (Ac-SEFCI[Trp(1-Me)]QDWGEHRC[Sar]EGESESK([γGlu-C18 diacid])-NH2; disulfide 4-14), the IC50 in series [1] was < 100 nM. The half-life in the series “in vivo” was 145 h.
Consider `CC[C@H](C)[C@@H]1NC(=O)[C@@H](NC(=O)[C@H](Cc2ccc(O)cc2)NC(=O)[C@H](CCC(=O)O)NC(=O)[C@H](CO)NC(C)=O)CSSC[C@@H](C(=O)N(C)CC(=O)N[C@@H](CCC(=O)O)C(=O)NCC(=O)N[C@@H](C)C(=O)N[C@@H](CCCCNC(=O)COCCOCCNC(=O)CC[C@H](NC(=O)COCCOCCNC(=O)CNC(=O)CC[C@H](NC(=O)CCCCCCCCCCCCCCCCC(=O)O)C(=O)O)C(=O)O)C(N)=O)NC(=O)[C@H](CCCNC(=N)N)NC(=O)[C@H](Cc2c[nH]cn2)NC(=O)[C@H](CCC(=O)O)NC(=O)CNC(=O)[C@H](Cc2c[nH]c3ccccc23)NC(=O)[C@H](CCC(=O)O)NC(=O)[C@H](CCC(N)=O)NC(=O)[C@H](Cc2cn(C)c3ccccc23)NC1=O` [Compound 122] (Ac-SEYCI[Trp(1-Me)]QEWGEHRC[Sar]EGAK([AEEA-γGlu-AEEA-Gly-γGlu-C18 diacid])-NH2; disulfide 4-14), for which the IC50 in series [1] is < 500 nM. In “in vivo”, this molecule gave a half-life of 127 h.
As for `CC[C@H](C)[C@H](NC(C)=O)C(=O)N[C@H]1CSSC[C@@H](C(=O)N[C@H](C(=O)NCC(=O)N[C@@H](C)C(=O)N[C@@H](CCC(=O)O)C(=O)N[C@@H](CO)C(N)=O)[C@@H](C)O)NC(=O)[C@H](CCCNC(=N)N)NC(=O)[C@H](Cc2c[nH]cn2)NC(=O)[C@H](CCC(=O)O)NC(=O)CNC(=O)[C@H](Cc2c[nH]c3ccccc23)NC(=O)[C@H](CC(=O)O)NC(=O)[C@H](CCC(N)=O)NC(=O)[C@H](Cc2c[nH]c3ccccc23)NC(=O)[C@H]([C@@H](C)CC)NC1=O` [Compound 15] (Ac-ICIWQDWGEHRCTGAES-NH2; disulfide 2-12), in series [2], the “Solubility, Condition 1 Acetate pH 4” value was “+ (denotes solubility at the given condition, as determined by UV absorbance being less than 0.1 AU at 340 nm and the sample being clear when manually inspected.)”; the “Solubility, Condition 2 Acetate pH 5” value is “− (denotes lack of solubility at the given condition, as UV absorbance at 340 nm exceeds 0.1 AU and/or it is visibly turbid or contains particles.)”; the “Solubility, Condition 3 Phosphate pH 6” value is on record as “− (denotes lack of solubility at the given condition, as UV absorbance at 340 nm exceeds 0.1 AU and/or it is visibly turbid or contains particles.)”; the “Solubility, Condition 4 Phosphate pH 7” value was “+ (denotes solubility at the given condition, as determined by UV absorbance being less than 0.1 AU at 340 nm and the sample being clear when manually inspected.)”. In addition, in series [2], the “Solubility, Condition 5 Phosphate pH 7.5” value was “+ (denotes solubility at the given condition, as determined by UV absorbance being less than 0.1 AU at 340 nm and the sample being clear when manually inspected.)”. For the same molecule, in series [1], the IC50 was < 100 nM and the pIC50 is 7.33. This molecule showed a pKd on Human C3 of 7.85.
Regarding `CC[C@H](C)[C@H](NC(C)=O)C(=O)N[C@H]1CSSC[C@@H](C(=O)N[C@H](C(=O)N[C@@H](CCC(=O)O)C(=O)NCC(=O)N[C@@H](CCC(=O)O)C(N)=O)[C@@H](C)O)NC(=O)[C@H](CCCNC(=N)N)NC(=O)[C@H](Cc2c[nH]cn2)NC(=O)[C@H](CCC(=O)O)NC(=O)CNC(=O)[C@H](Cc2c[nH]c3ccccc23)NC(=O)[C@H](CC(=O)O)NC(=O)[C@H](CCC(N)=O)NC(=O)[C@H](Cc2c[nH]c3ccccc23)NC(=O)[C@H]([C@@H](C)CC)NC1=O` [Compound 24] (Ac-ICIWQDWGEHRCTEGE-NH2; disulfide 2-12), in series [2], the “Solubility, Condition 1 Acetate pH 4” value is listed as “− (denotes lack of solubility at the given condition, as UV absorbance at 340 nm exceeds 0.1 AU and/or it is visibly turbid or contains particles.)”; the “Solubility, Condition 2 Acetate pH 5” value is “− (denotes lack of solubility at the given condition, as UV absorbance at 340 nm exceeds 0.1 AU and/or it is visibly turbid or contains particles.)”; the “Solubility, Condition 3 Phosphate pH 6” value is listed as “− (denotes lack of solubility at the given condition, as UV absorbance at 340 nm exceeds 0.1 AU and/or it is visibly turbid or contains particles.)”; the “Solubility, Condition 4 Phosphate pH 7” value was “+ (denotes solubility at the given condition, as determined by UV absorbance being less than 0.1 AU at 340 nm and the sample being clear when manually inspected.)”. In addition, in series [2], the “Solubility, Condition 5 Phosphate pH 7.5” value was “+ (denotes solubility at the given condition, as determined by UV absorbance being less than 0.1 AU at 340 nm and the sample being clear when manually inspected.)”. Further, the “Solubility by visual inspection and absorbance, condition 1, 2 and 3” value in series [2] (10 mg/mL, acetate pH 4.0, acetate pH 5.0, phosphate pH 6.0, all exceeding 0.1 AU threshold) is given as “cloudy”. The “Solubility by visual inspection and absorbance, condition 4 and 5” value in series [2] (10 mg/mL, phosphate pH 7 and phosphate pH 7.5) was “good conditions for solubility”. Moreover, in series [1], the half-inhibitory concentration (IC50) is < 100 nM and the pIC50 was 7.05. The negative-log Kd (pKd) on Human C3 is 7.55.
Consider `CC[C@H](C)[C@@H]1NC(=O)[C@@H](NC(=O)[C@H](Cc2ccccc2)NC(=O)[C@H](C)NC(=O)[C@H](CO)NC(=O)CNC(=O)[C@H](CCC(=O)O)NC(C)=O)CSSC[C@@H](C(=O)N(C)CC(=O)N[C@@H](CCC(=O)O)C(N)=O)NC(=O)[C@H](CCCNC(=N)N)NC(=O)[C@H](Cc2c[nH]cn2)NC(=O)[C@H](CCC(=O)O)NC(=O)CNC(=O)[C@H](Cc2c[nH]c3ccccc23)NC(=O)[C@H](CC(=O)O)NC(=O)[C@H](CCC(N)=O)NC(=O)[C@H](Cc2cn(C)c3ccccc23)NC1=O` [Compound 53] (Ac-EGSAFCI[Trp(1-Me)]QDWGEHRC[Sar]E-NH2; disulfide 6-16), for which, in series [2], the “Solubility, Condition 1 Acetate pH 4” value is listed as “− (denotes lack of solubility at the given condition, as UV absorbance at 340 nm exceeds 0.1 AU and/or it is visibly turbid or contains particles.)”; the “Solubility, Condition 2 Acetate pH 5” value is given as “− (denotes lack of solubility at the given condition, as UV absorbance at 340 nm exceeds 0.1 AU and/or it is visibly turbid or contains particles.)”; the “Solubility, Condition 3 Phosphate pH 6” value is “+ (denotes solubility at the given condition, as determined by UV absorbance being less than 0.1 AU at 340 nm and the sample being clear when manually inspected.)”; the “Solubility, Condition 4 Phosphate pH 7” value was “+ (denotes solubility at the given condition, as determined by UV absorbance being less than 0.1 AU at 340 nm and the sample being clear when manually inspected.)”. Besides, in series [2], the “Solubility, Condition 5 Phosphate pH 7.5” value is “+ (denotes solubility at the given condition, as determined by UV absorbance being less than 0.1 AU at 340 nm and the sample being clear when manually inspected.)”. For the same molecule, the half-maximal inhibitory concentration (IC50) in series [1] was < 100 nM. The pKd on Human C3 is 8.85.
